# Test results as given in US8372871B2, “Histidinol dehydrogenase inhibitors, and use thereof as medicaments” (priority 2008, dated 2013).
# Tests used:
# B. suis = assay: microbe, parasite or virus in culture; type: cell-based, Brucella suis
# [1] = biological target: B. suis histidinol dehydrogenase (Brucella suis biovar 1, UniProt Q8G2R2); assay: biochemical; type: biochemical
# [2] = system: B. suis in the macrophage; type: cell-based, Brucella suis
# [3] = Brucella suis, 168 h, read-out: Effects on the growth of B. suis (%) (inhibition of bacterial growth)
# B. suis histidinol dehydrogenase, sequence (Q8G2R2 whole entry, looked up): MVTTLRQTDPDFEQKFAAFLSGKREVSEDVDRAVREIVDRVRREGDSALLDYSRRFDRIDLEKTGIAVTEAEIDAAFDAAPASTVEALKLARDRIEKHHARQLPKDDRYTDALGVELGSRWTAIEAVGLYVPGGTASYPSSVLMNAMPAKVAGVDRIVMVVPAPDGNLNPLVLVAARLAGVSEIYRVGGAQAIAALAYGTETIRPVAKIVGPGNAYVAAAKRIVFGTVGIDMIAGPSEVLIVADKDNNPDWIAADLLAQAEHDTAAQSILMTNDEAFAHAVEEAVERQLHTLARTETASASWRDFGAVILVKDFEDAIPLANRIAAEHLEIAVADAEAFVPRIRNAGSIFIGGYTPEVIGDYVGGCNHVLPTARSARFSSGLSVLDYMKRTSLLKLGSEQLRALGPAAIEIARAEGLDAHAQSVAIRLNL
smiles,measurement,setting,value
"N[C@@H](Cc1c[nH]cn1)C(=O)Cc1ccc(C#Cc2ccccc2)cc1 [Compound 3a, (3S)-3-amino-4-(1H-imidazol-4-yl)-1-[4-(phenylethynyl)phenyl] butan-2-one dihydrochlorhydrate]",Inhibition of the growth of the bacteria in liquid medium,B. suis,completely inhibit
same,inhibition at 50 µM,B. suis; [3],100%
same,inhibition at 100 µM,B. suis; [3],100%
same,Affinity for HDH,[1],significant affinity
same,IC50,[1],3 nM
same,Inhibition of the intracellular proliferation of the bacteria in the macrophage,[2],approximately 1000 times
